According to the supplement of paper PMC11451515:

Test system: NOMO1
Assay: cell viability relative to DMSO control; higher = less cytotoxic
Settings: 48 h
Outline: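 Library compounds in DMSO were pin-dosed into 1536-well plates (5 μl) holding NOMO1 or SEM (500 cells/well) or P12-Ichikawa (1000 cells/well) leukemia cells, across an 11-point threefold series of 47 μM to 0.79 nM. Each cell line had been adapted for at least four passages in each medium. CellTiter-Glo One luminescence was read after 48 h at 37°C. Viability is the per-plate percentage relative to DMSO wells, with cell-free wells as background.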

[1] = HPLM + 10% dialyzed FBS, 0.000781 µM
[2] = HPLM + 10% dialyzed FBS, 0.00234 µM
[3] = HPLM + 10% dialyzed FBS, 0.00702 µM
[4] = HPLM + 10% dialyzed FBS, 0.0211 µM
[5] = HPLM + 10% dialyzed FBS, 0.0632 µM
[6] = HPLM + 10% dialyzed FBS, 0.19 µM
[7] = HPLM + 10% dialyzed FBS, 0.569 µM
[8] = HPLM + 10% dialyzed FBS, 1.71 µM
[9] = HPLM + 10% dialyzed FBS, 5.12 µM
[10] = HPLM + 10% dialyzed FBS, 15.4 µM
[11] = HPLM + 10% dialyzed FBS, 46.1 µM
[12] = RPMI 5 mM glucose + 10% FBS, 0.000781 µM
[13] = RPMI 5 mM glucose + 10% FBS, 0.00234 µM
[14] = RPMI 5 mM glucose + 10% FBS, 0.00702 µM
[15] = RPMI 5 mM glucose + 10% FBS, 0.0211 µM
[16] = RPMI 5 mM glucose + 10% FBS, 0.0632 µM
[17] = RPMI 5 mM glucose + 10% FBS, 0.19 µM
[18] = RPMI 5 mM glucose + 10% FBS, 0.569 µM
[19] = RPMI 5 mM glucose + 10% FBS, 1.71 µM
[20] = RPMI 5 mM glucose + 10% FBS, 5.12 µM
[21] = RPMI 5 mM glucose + 10% FBS, 15.4 µM
[22] = RPMI 5 mM glucose + 10% FBS, 46.1 µM
[23] = RPMI 5 mM glucose + 10% dialyzed FBS, 0.000781 µM
[24] = RPMI 5 mM glucose + 10% dialyzed FBS, 0.00234 µM
[25] = RPMI 5 mM glucose + 10% dialyzed FBS, 0.00702 µM
[26] = RPMI 5 mM glucose + 10% dialyzed FBS, 0.0211 µM
[27] = RPMI 5 mM glucose + 10% dialyzed FBS, 0.0632 µM
[28] = RPMI 5 mM glucose + 10% dialyzed FBS, 0.19 µM
[29] = RPMI 5 mM glucose + 10% dialyzed FBS, 0.569 µM
[30] = RPMI 5 mM glucose + 10% dialyzed FBS, 1.71 µM
[31] = RPMI 5 mM glucose + 10% dialyzed FBS, 5.12 µM
[32] = RPMI 5 mM glucose + 10% dialyzed FBS, 15.4 µM
[33] = RPMI 5 mM glucose + 10% dialyzed FBS, 46.1 µM

Structure (SMILES)	cell viability [1] [%]	cell viability [2] [%]	cell viability [3] [%]	cell viability [4] [%]	cell viability [5] [%]	cell viability [6] [%]	cell viability [7] [%]	cell viability [8] [%]	cell viability [9] [%]	cell viability [10] [%]	cell viability [11] [%]	cell viability [12] [%]	cell viability [13] [%]	cell viability [14] [%]	cell viability [15] [%]	cell viability [16] [%]	cell viability [17] [%]	cell viability [18] [%]	cell viability [19] [%]	cell viability [20] [%]	cell viability [21] [%]	cell viability [22] [%]	cell viability [23] [%]	cell viability [24] [%]	cell viability [25] [%]	cell viability [26] [%]	cell viability [27] [%]	cell viability [28] [%]	cell viability [29] [%]	cell viability [30] [%]	cell viability [31] [%]	cell viability [32] [%]	cell viability [33] [%]
COc1ccc(C(=O)CC(=O)c2ccc(C(C)(C)C)cc2)cc1	78.3	107	92.8	101	108	112	131	130	121	98.3	105	101	108	107	110	121	113	122	104	117	122	121	73	102	99.9	106	108	111	110	106	115	95.7	111
NCCCC(O)(P(=O)(O)O)P(=O)(O)O.O.O.O.[Na+]	–	–	–	–	–	–	–	–	–	–	–	102	–	–	–	117	117	102	106	102	–	–	–	116	107	123	115	110	111	113	114	87.8	61.7
Nc1nc(Nc2ccc([S+](N)(=O)[O-])cc2)nn1C(=O)c1c(F)cccc1F	94.7	97.4	90.6	113	105	109	102	107	120	66.1	7.01	94.7	87.8	107	94	94.7	99.3	93.8	87.2	93.2	50.4	8.21	98.7	86.1	100	91.5	86.9	92.7	93.1	104	84.4	49.5	5.65
OC1=CC2=C(C(=O)\C=C(/O2)C3=CC=CC=C3)C(=C1O)O	93.6	102	117	107	111	106	108	92.2	72.6	82.8	83.1	118	105	105	115	96.8	111	103	111	84	52.4	57.4	113	108	110	107	102	112	106	98.6	96	55.2	64.9
CCCNCC(O)COc1ccccc1C(=O)CCc1ccccc1 (stereo unspecified)	82.6	117	113	106	121	120	123	112	124	114	96.9	23.6	106	106	117	111	109	111	122	124	111	107	108	98.5	124	122	124	111	111	121	118	119	103
C[N]1N=CC2=C1C=C(C(=C2)OC3=CC=C(NC(=O)\C4=C\C=C(\C)N(C4=O)C5=CC=C(F)C=C5)C=C3F)C6=C[NH]N=C6	107	131	117	126	133	141	132	125	86.1	25.3	15.6	113	112	111	121	127	107	116	118	104	16.4	11.9	121	117	118	108	122	125	124	115	100	30	16.2
CCCOc1ccc2[nH]c(NC(=O)OC)nc2c1	116	116	104	102	76.5	36.9	31.7	32	50.3	36.6	36.6	122	116	120	121	98.3	28.6	21.1	19.4	26.7	22.6	25.2	–	–	–	–	–	–	–	–	–	–	–
N#CC1(c2ccc(NC(=O)c3cccnc3NCc3ccncc3)cc2)CCCC1	112	110	110	121	114	98.4	108	95.2	103	91.4	93.1	99.5	106	99.2	102	113	106	97.8	104	103	105	98.1	110	105	116	115	120	109	104	106	113	104	99.8
C[C@H]1[C@H](O)O[C@@H]2O[C@@]3(C)CC[C@H]4[C@H](C)CC[C@@H]1[C@@]24OO3	86	97.3	81	92.6	89.9	96	84.4	58.1	13.4	9.81	15.4	80.2	80.5	93.2	97.2	91.9	92.2	88	56.3	14.9	7.4	8.31	99.8	96	92	85.7	89	104	93.8	64.4	17.5	12.2	15.6
CCCC(CCC)C(=O)[O-]	106	105	113	122	116	120	109	110	101	84.9	63.8	86.1	96.6	107	123	106	113	107	102	111	94.4	92.1	75.5	108	105	106	112	116	114	109	98.6	110	101
C[C@H](NC(=O)Cc1cc(F)cc(F)c1)C(=O)N[C@@H]1C(=O)N(C)c2ccccc2-c2ccccc21	99	107	122	126	121	123	96.2	118	55.6	9.2	6.63	107	106	115	110	120	112	116	121	109	27.3	8.18	101	109	121	120	124	117	125	114	125	63.6	13.8
FC1=CC=C(CN2\C=C/C=C(/C(=O)N[C@@H](COC3=CC4=C(NC(=O)N4)C=C3)C5=CC=CC=C5)C2=O)C=C1F	86.7	91.5	97	111	103	109	97.6	82.8	64.6	53.8	43.5	77.8	80.1	88.4	79.9	82.8	96.6	85.8	86.8	69.2	60.3	45.9	88.7	86.8	97.7	82.8	84.4	89.5	82.3	73.9	63.3	57.6	44.3
CN1C2=CC(=O)/C(=N/NC(N)=O)C=C2CC1S(=O)(=O)[O-].[Na+] (stereo unspecified)	87	105	105	104	111	135	116	122	125	128	92.5	108	109	111	115	117	128	120	117	122	116	111	105	112	114	111	118	126	124	123	128	119	103
